For this assay, the target named is human recombinant GPR65 (Homo sapiens, UniProt Q8IYL9). In words: Human GPR65 cAMP HTRF antagonist assay. The format is cell-based. Conditions: 1321N1 cells stably expressing human recombinant GPR65, assay pH 7.2, read-out: hGPR65 IC50. As to the method:
Human GPR65 Cyclic Adenosine Monophosphate (cAMP) Homogeneous Time Resolved Fluorescence (HTRF) Antagonist Assay Procedure
IC50 data was obtained by the following procedure:
1321N1 human astrocytoma cells stably expressing human recombinant GPR65 (1321N1-hrGPR65 cells, EuroscreenFast) were cultured according to the vendor's instructions.
Compounds were tested for their ability to antagonise GPR65, through measuring the concentration of cytoplasmic cAMP following treatment of the cells at a pH of 7.2 to activate GPR65 signalling and addition of the compound to be tested. The extent to which the expected rise in cAMP concentration upon GPR65 activation was suppressed by the added compound is indicative of its potency. The assay was carried out according to EuroscreenFast assay Methodology as follows.
On the day of the assay, test compounds were added to 384-well, low volume, white microtiter plates by acoustic dispensing. KRH buffer (5 mM KCl, 1.25 mM MgSO4, 124 mM NaCl, 25 mM HEPES, 13.3 mM Glucose, 1.25 mM KH2PO4 and 1.45 mM CaCl2) was adjusted to pH 6.5, pH 7.6 and pH 8.4 by adding NaOH. 1321N1-hGPR65 cells were rapidly thawed and diluted in KRH, pH 7.6 prior to centrifugation at 300×g for 5 min and resuspension in assay buffer (KRH, pH 7.6, supplemented with 1 mM 3-isobutyl-1-methylxanthine (IBMX) and 200 μM ethylenediaminetetraacetic acid (EDTA)). Cells were added to assay plates at a density of 2,000 cells per well in a volume of 5 μl. Assay plates were briefly centrifuged at 100×g and then incubated at room temperature for 30 min. Cells were stimulated by the addition of 5 μL KRH, pH 6.5, to achieve an assay pH of 7.2, while control wells received 5 μl KRH, pH 8.4 to achieve an assay pH of 7.9. Assay plates were briefly centrifuged at 100×g and then incubated at room temperature for 30 min.
Accumulation of cAMP was detected by cAMP HTRF kit (Cisbio). d2-labeled cAMP and cryptate-labeled anti-cAMP antibody in Lysis and Detection Buffer (Cisbio) were added to assay plates, and the plates were incubated at room temperature for 1 h. HTRF measurements were performed using a Pherastar FSX instrument. Acceptor and donor emission signals were measured at 665 nm and 620 nm, respectively, and HTRF ratios were calculated as signal665 nm/signal620nm×10^4. Data were normalised to high and low control values and fitted with 4-parameter logistic regression to determine hGPR65 IC50 values for the test compounds, which are shown in Table 1.
A general note: TR-FRET usually uses a lanthanide donor and a delayed reading to cut background.

Results on one compound are retold here after patent US20250304574A1, “3,4,6,7-TETRAHYDRO-2,7-NAPHTHYRIDINE-2(1H)-CARBOXAMIDE DERIVATIVES AS GPR65 INHIBITORS FOR THE TREATMENT OF CANCER AND AUTOIMMUNE DISEASES” (Pathios Therapeutics Limited, priority 2022, published 2025).

The IC50 is the concentration that gives 50% inhibition.

human recombinant GPR65, sequence (Q8IYL9 whole entry): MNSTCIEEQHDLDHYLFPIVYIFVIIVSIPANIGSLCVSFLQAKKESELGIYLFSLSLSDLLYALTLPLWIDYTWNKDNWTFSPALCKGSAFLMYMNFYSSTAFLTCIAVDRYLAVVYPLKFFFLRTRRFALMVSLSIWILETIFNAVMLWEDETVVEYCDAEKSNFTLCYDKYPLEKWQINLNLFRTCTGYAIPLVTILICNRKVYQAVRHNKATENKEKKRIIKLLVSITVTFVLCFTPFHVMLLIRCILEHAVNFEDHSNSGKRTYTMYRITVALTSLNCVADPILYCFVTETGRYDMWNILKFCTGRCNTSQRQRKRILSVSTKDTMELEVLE

`O=C(Nc1cc(Cl)c(C(F)(F)F)cc1F)N1Cc2ccnc(F)c2C(F)C1` (stereo not shown) [Compound 27, N-(5-chloro-2-fluoro-4-(trifluoromethyl)phenyl)-4,5-difluoro-3,4-dihydro-2,6-naphthyridine-2(1H)-carboxamide]: the 50% inhibitory concentration (IC50) was < 500 nM.
